Measured values as given in PubChem BioAssay (NCI).
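1) Cells in 96-well plates. 2) Compound, 48 h, 5 concentrations. 3) Linear interpolation between surrounding doses. 4) Unreached endpoint = highest concentration. GI50 marks 50% less growth. TGI: concentration producing complete growth inhibition.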

Columns and labels:
Experiment in all cases: growth of human tumour cells (NCI), 48 h
HCC-2998 colon = tested on: HCC-2998 colon
NCI-H23 lung = tested on: NCI-H23 lung
SW-620 colon = tested on: SW-620 colon
T-47D breast = tested on: T-47D breast
K-562 leukemia = tested on: K-562 leukemia
PC-3 prostate = tested on: PC-3 prostate
BT-549 breast = tested on: BT-549 breast
CAKI-1 renal = tested on: CAKI-1 renal
COLO 205 colon = tested on: COLO 205 colon
TK-10 renal = tested on: TK-10 renal
A549 NSCLC = tested on: A549 NSCLC
DU-145 prostate = tested on: DU-145 prostate
NCI-H460 lung = tested on: NCI-H460 lung
ACHN renal = tested on: ACHN renal
EKVX NSCLC = tested on: EKVX NSCLC
NCI/ADR-RES ovarian = tested on: NCI/ADR-RES ovarian
786-0 renal = tested on: 786-0 renal
UACC-257 melanoma = tested on: UACC-257 melanoma
MALME-3M melanoma = tested on: MALME-3M melanoma
MDA-MB-435 = tested on: MDA-MB-435
SF-295 CNS = tested on: SF-295 CNS
MOLT-4 leukemia = tested on: MOLT-4 leukemia
OVCAR-8 ovarian = tested on: OVCAR-8 ovarian
SNB-75 CNS = tested on: SNB-75 CNS
OVCAR-4 ovarian = tested on: OVCAR-4 ovarian
HCT-116 colon = tested on: HCT-116 colon
HOP-62 NSCLC = tested on: HOP-62 NSCLC
OVCAR-5 ovarian = tested on: OVCAR-5 ovarian
UO-31 renal = tested on: UO-31 renal
SK-OV-3 ovarian = tested on: SK-OV-3 ovarian
SK-MEL-2 melanoma = tested on: SK-MEL-2 melanoma
SNB-19 CNS = tested on: SNB-19 CNS
NCI-H226 lung = tested on: NCI-H226 lung
SK-MEL-5 melanoma = tested on: SK-MEL-5 melanoma
HT29 colon = tested on: HT29 colon
MDA-MB-231 breast = tested on: MDA-MB-231 breast
U251 CNS = tested on: U251 CNS
SF-539 CNS = tested on: SF-539 CNS
SR leukemia = tested on: SR leukemia
IGROV1 ovarian = tested on: IGROV1 ovarian
SF-268 CNS = tested on: SF-268 CNS
KM12 colon = tested on: KM12 colon
A498 renal = tested on: A498 renal
LOX IMVI melanoma = tested on: LOX IMVI melanoma
MCF7 breast = tested on: MCF7 breast
HCT-15 colon = tested on: HCT-15 colon
UACC-62 melanoma = tested on: UACC-62 melanoma
RPMI-8226 leukemia = tested on: RPMI-8226 leukemia
M14 melanoma = tested on: M14 melanoma
SK-MEL-28 melanoma = tested on: SK-MEL-28 melanoma
OVCAR-3 ovarian = tested on: OVCAR-3 ovarian
HL-60(TB) leukemia = tested on: HL-60(TB) leukemia
HOP-92 NSCLC = tested on: HOP-92 NSCLC
NCI-H522 lung = tested on: NCI-H522 lung
SN12C renal = tested on: SN12C renal

CCC(C(=O)C(=O)OC)P1(=O)OC(C)(C)CN1C(C)(C)C (stereo unspecified)
TGI (HCC-2998 colon): > 100 µM | TGI (NCI-H23 lung): > 100 µM | TGI (SW-620 colon): > 100 µM | TGI (T-47D breast): > 100 µM | TGI (K-562 leukemia): > 100 µM | TGI (PC-3 prostate): > 100 µM | TGI (BT-549 breast): > 100 µM | TGI (CAKI-1 renal): > 100 µM | TGI (COLO 205 colon): > 100 µM | TGI (TK-10 renal): > 100 µM | TGI (A549 NSCLC): > 100 µM | TGI (DU-145 prostate): > 100 µM | TGI (NCI-H460 lung): > 100 µM | TGI (ACHN renal): > 100 µM | TGI (EKVX NSCLC): > 100 µM | TGI (NCI/ADR-RES ovarian): > 100 µM | TGI (786-0 renal): > 100 µM | TGI (UACC-257 melanoma): > 100 µM | TGI (MALME-3M melanoma): > 100 µM | TGI (MDA-MB-435): > 100 µM | TGI (SF-295 CNS): > 100 µM | TGI (MOLT-4 leukemia): > 100 µM | TGI (OVCAR-8 ovarian): > 100 µM | TGI (SNB-75 CNS): > 100 µM | TGI (OVCAR-4 ovarian): > 100 µM | TGI (HCT-116 colon): > 100 µM | TGI (HOP-62 NSCLC): > 100 µM | TGI (OVCAR-5 ovarian): > 100 µM | TGI (UO-31 renal): > 100 µM | TGI (SK-OV-3 ovarian): > 100 µM | TGI (SK-MEL-2 melanoma): > 100 µM | TGI (SNB-19 CNS): > 100 µM | TGI (NCI-H226 lung): > 100 µM | TGI (SK-MEL-5 melanoma): > 100 µM | TGI (HT29 colon): > 100 µM | TGI (MDA-MB-231 breast): > 100 µM | TGI (U251 CNS): > 100 µM | TGI (SF-539 CNS): > 100 µM | TGI (SR leukemia): > 100 µM | TGI (IGROV1 ovarian): > 100 µM | TGI (SF-268 CNS): > 100 µM | TGI (KM12 colon): > 100 µM | TGI (A498 renal): 53.1 µM | TGI (LOX IMVI melanoma): > 100 µM | TGI (MCF7 breast): > 100 µM | TGI (HCT-15 colon): > 100 µM | TGI (UACC-62 melanoma): 60.4 µM | TGI (RPMI-8226 leukemia): > 100 µM | TGI (M14 melanoma): > 100 µM | TGI (SK-MEL-28 melanoma): > 100 µM | TGI (OVCAR-3 ovarian): > 100 µM

OC(c1cc2ccc(C(F)(F)F)cc2c2cc(C(F)(F)F)ccc12)C1CCCCN1 (stereo unspecified)
TGI (HCC-2998 colon): 2.62 µM | TGI (SW-620 colon): 2.84 µM | TGI (PC-3 prostate): 2.92 µM | TGI (CAKI-1 renal): 3.13 µM | TGI (COLO 205 colon): 3.05 µM | TGI (TK-10 renal): 3.71 µM | TGI (A549 NSCLC): 3.26 µM | TGI (DU-145 prostate): 3.21 µM | TGI (HL-60(TB) leukemia): > 100 µM | TGI (ACHN renal): 2.62 µM | TGI (786-0 renal): 2.98 µM | TGI (MALME-3M melanoma): 1.5 µM | TGI (HOP-92 NSCLC): 3.19 µM | GI50 (SF-295 CNS): 1.83 µM | TGI (SF-295 CNS): 3.41 µM | TGI (NCI-H522 lung): 3.16 µM | GI50 (OVCAR-8 ovarian): 1.86 µM | TGI (OVCAR-8 ovarian): 3.74 µM | TGI (SNB-75 CNS): 2.57 µM | TGI (HCT-116 colon): 2.8 µM | TGI (OVCAR-5 ovarian): 3.18 µM | TGI (UO-31 renal): 2.71 µM | TGI (SK-OV-3 ovarian): 3.82 µM | TGI (SK-MEL-5 melanoma): 2.89 µM | TGI (HT29 colon): 3.4 µM | TGI (MDA-MB-231 breast): 3.2 µM | TGI (SR leukemia): 4.99 µM | TGI (SN12C renal): 3.26 µM | TGI (UACC-62 melanoma): 3.49 µM | TGI (SK-MEL-28 melanoma): 3.36 µM
